Experimental data published in US11759462B2, “Spirocyclic compounds as tryptophan hydroxylase inhibitors” (priority 2013, dated 2023).
Read-outs that look alike come from different tables or passages of the source.

Molecular target: T1, Recombinant human TPH1 (MBP tagged) (Homo sapiens, UniProt P17752)
T1 construct: cloning full length human TPH1 cDNA in to a bacterial pMAL-c5E expression vector; made in house; host or cells: E. coli BL21 (DE3)
T1 sequence (P17752 1-444): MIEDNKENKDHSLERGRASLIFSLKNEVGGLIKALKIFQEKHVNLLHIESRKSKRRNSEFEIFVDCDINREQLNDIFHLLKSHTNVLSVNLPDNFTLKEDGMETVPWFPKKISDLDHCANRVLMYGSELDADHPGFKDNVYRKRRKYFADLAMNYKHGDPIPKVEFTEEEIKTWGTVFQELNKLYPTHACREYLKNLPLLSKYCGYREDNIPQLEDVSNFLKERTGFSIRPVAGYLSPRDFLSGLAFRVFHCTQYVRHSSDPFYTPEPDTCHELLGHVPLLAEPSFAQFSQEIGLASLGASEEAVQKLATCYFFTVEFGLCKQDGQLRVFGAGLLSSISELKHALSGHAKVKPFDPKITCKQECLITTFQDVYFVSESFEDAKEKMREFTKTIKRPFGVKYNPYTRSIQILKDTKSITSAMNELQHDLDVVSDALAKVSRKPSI
Experiment: TPH1 in vitro inhibition assay (kinetic fluorescence)
Type: biochemical
Outline: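 Final mix: 15 nM MBP-TPH1, 30 μM Trp, 36 μM 6-methyltetrahydropterin, 25 μM ferrous ammonium sulfate, 50 mM MES pH 7.1, 1% DMSO, room temperature.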

[1] = read-out: TPH1 Range (TPH1 inhibition IC50)
[2] = TPH1 Range (TPH1 inhibition IC50)

| IC50 [1] [µM] | Compound | IC50 [2] [µM] |
| --- | --- | --- |
| < 0.05 | Cc1cc(C)cc(-c2ccc([C@@H](Oc3cc(N4CCC5(CC4)CN[C@H](C(=O)O)C5)nc(N)n3)C(F)(F)F)c(-n3ccc(C)n3)c2)c1 [Example 1at, (S)-8-(2-amino-6-((R)-1-(3′,5′-dimethyl-3-(3-methyl-1H-pyrazol-1-yl)-[1,1′-biphenyl]-4-yl)-2,2,2-trifluoroethoxy)pyrimidin-4-yl)-2,8-diazaspiro[4.5]decane-3-carboxylic acid] |  |
| 0.3 to 3 | Nc1nc(O[C@H](c2ccc(-c3ccc(C(F)(F)F)cc3)cc2)C(F)(F)F)cc(N2CCC3(CC2)CN[C@H](C(=O)O)C3)n1 [Example 55cd, (S)-8-(2-amino-6-((R)-2,2,2-trifluoro-1-(4′-(trifluoromethyl)-[1,1′-biphenyl]-4-yl)ethoxy)pyrimidin-4-yl)-2,8-diazaspiro[4.5]decane-3-carboxylic acid] |  |
| 0.05 to 0.3 | CC(C)Oc1cc(F)cc(-c2cc(Cl)ccc2[C@@H](Oc2cc(N3CCC4(CC3)CN[C@H](C(=O)O)C4)nc(N)n2)C(F)(F)F)c1 [Example 34bl, (S)-8-(2-amino-6-((R)-1-(5-chloro-3′-fluoro-5′-isopropoxy-[1,1′-biphenyl]-2-yl)-2,2,2-trifluoroethoxy)pyrimidin-4-yl)-2,8-diazaspiro[4.5]decane-3-carboxylic acid] |  |
|  | CN(C)S(=O)(=O)c1cccc(-c2cc(Cl)ccc2[C@@H](Oc2cc(N3CCC4(CC3)CN[C@H](C(=O)O)C4)nc(N)n2)C(F)(F)F)c1 [Example 34cl, (S)-8-(2-amino-6-((R)-1-(5-chloro-3′-(N,N-dimethylsulfamoyl)-[1,1′-biphenyl]-2-yl)-2,2,2-trifluoroethoxy)pyrimidin-4-yl)-2,8-diazaspiro[4.5]decane-3-carboxylic acid] | 0.05 to 0.3 |
|  | Nc1nc(O[C@H](c2ccc(Cl)cc2-c2cccc(Cl)c2)C(F)(F)F)cc(N2CCC3(CC2)CN[C@H](C(=O)O)C3)n1 [Example 34a, (S)-8-(2-amino-6-((R)-1-(3′,5-dichloro-[1,1′-biphenyl]-2-yl)-2,2,2-trifluoroethoxy)pyrimidin-4-yl)-2,8-diazaspiro[4.5]decane-3-carboxylic acid] | < 0.05 |
| 0.3 to 3 | COc1cc(F)ccc1-c1ccc([C@@H](Oc2cc(N3CCC4(CC3)CN[C@H](C(=O)O)C4)nc(N)n2)C(F)(F)F)cc1 [Example 55bl, (S)-8-(2-amino-6-((R)-2,2,2-trifluoro-1-(4′-fluoro-2′-methoxy-[1,1′-biphenyl]-4-yl)ethoxy)pyrimidin-4-yl)-2,8-diazaspiro[4.5]decane-3-carboxylic acid] |  |
| 0.05 to 0.3 | Cc1ccn(-c2cc(Br)ccc2[C@@H](Oc2cc(N3CCC4(CC3)CN[C@H](C(=O)O)C4)nc(C)n2)C(F)(F)F)n1 [Example 27, (S)-8-(6-((R)-1-(4-Bromo-2-(3-methyl-1H-pyrazol-1-yl)phenyl)-2,2,2-trifluoroethoxy)-2-methylpyrimidin-4-yl)-2,8-diazaspiro[4.5]decane-3-carboxylic acid] |  |
| < 0.05 | Cc1ccn(-c2ccc(-c3ccc(C(=O)O)cc3)cc2[C@@H](Oc2cc(N3CCC4(CC3)CN[C@H](C(=O)O)C4)nc(N)n2)C(F)(F)F)n1 [Example 19g, (S)-8-(2-amino-6-((R)-1-(4′-carboxy-4-(3-methyl-1H-pyrazol-1-yl)-[1,1′-biphenyl]-3-yl)-2,2,2-trifluoroethoxy)pyrimidin-4-yl)-2,8-diazaspiro[4.5] decane-3-carboxylic acid] |  |
| < 0.05 | Nc1nc(O[C@H](c2ccc(Cl)cc2-c2ncccn2)C(F)(F)F)cc(N2CCC3(CC2)CN[C@H](C(=O)O)C3)n1 [Example 34ct, (S)-8-(2-amino-6-((R)-1-(4-chloro-2-(pyrimidin-2-yl)phenyl)-2,2,2-trifluoroethoxy)pyrimidin-4-yl)-2,8-diazaspiro[4.5]decane-3-carboxylic acid] |  |
| < 0.05 | CCOC(=O)c1ccc(-c2ccc(-n3ccc(C)n3)c([C@@H](Oc3cc(N4CCC5(CC4)CN[C@H](C(=O)O)C5)nc(N)n3)C(F)(F)F)c2)cc1 [Example 21, (S)-8-(2-amino-6-((R)-1-(4′-(ethoxycarbonyl)-4-(3-methyl-1H-pyrazol-1-yl)-[1,1′-biphenyl]-3-yl)-2,2,2-trifluoroethoxy)pyrimidin-4-yl)-2,8-diazaspiro[4.5]decane-3-carboxylic acid] |  |
|  | Nc1nc(O[C@H](c2ccc(Cl)cc2-c2cc(F)cc(Cl)c2)C(F)(F)F)cc(N2CCC3(CC2)CN[C@H](C(=O)O)C3)n1 [Example 34an, (S)-8-(2-amino-6-((R)-1-(3′,5-dichloro-5′-fluoro-[1,1′-biphenyl]-2-yl)-2,2,2-trifluoroethoxy)pyrimidin-4-yl)-2,8-diazaspiro[4.5]decane-3-carboxylic acid] | < 0.05 |
| 0.05 to 0.3 | COc1cc(-c2ccc([C@@H](Oc3cc(N4CCC5(CC4)CN[C@H](C(=O)O)C5)nc(N)n3)C(F)(F)F)cc2)ccc1C(=O)N1CCCC1 [Example 55r, (S)-8-(2-amino-6-((R)-2,2,2-trifluoro-1-(3′-methoxy-4′-(pyrrolidine-1-carbonyl)-[1,1′-biphenyl]-4-yl)ethoxy)pyrimidin-4-yl)-2,8-diazaspiro[4.5]decane-3-carboxylic acid] |  |
| 3 to 10 | COc1ccc(F)c(-c2ccc([C@@H](Oc3cc(N4CCC5(CC4)CN[C@H](C(=O)O)C5)nc(N)n3)C(F)(F)F)cc2)c1 [Example 55bn, (S)-8-(2-amino-6-((R)-2,2,2-trifluoro-1-(2′-fluoro-5′-methoxy-[1,1′-biphenyl]-4-yl)ethoxy)pyrimidin-4-yl)-2,8-diazaspiro[4.5]decane-3-carboxylic acid] |  |
| < 0.05 | CCCOc1ccc(-c2ccc([C@@H](Oc3cc(N4CCC5(CC4)CN[C@H](C(=O)O)C5)nc(N)n3)C(F)(F)F)c(-n3ccc(C)n3)c2)cc1 [Example 1cd, (S)-8-(2-amino-6-((R)-2,2,2-trifluoro-1-(3-(3-methyl-1H-pyrazol-1-yl)-4′-propoxy-[1,1′-biphenyl]-4-yl)ethoxy)pyrimidin-4-yl)-2,8-diazaspiro[4.5]decane-3-carboxylic acid] |  |
| 3 to 10 | Nc1nc(NCc2ccccc2N2CCCCC2)nc(N2CCC3(CC2)CNC(C(=O)O)C3)n1 (centres unmarked) [Example 39c, 8-(4-amino-6-((2-(piperidin-1-yl)benzyl)amino)-1,3,5-triazin-2-yl)-2,8-diazaspiro[4.5]decane-3-carboxylic acid] |  |
|  | NC(=O)c1cccc(-c2cc(Cl)ccc2[C@@H](Oc2cc(N3CCC4(CC3)CN[C@H](C(=O)O)C4)nc(N)n2)C(F)(F)F)c1 [Example 34ac, (S)-8-(2-amino-6-((R)-1-(3′-carbamoyl-5-chloro-[1,1′-biphenyl]-2-yl)-2,2,2-trifluoroethoxy)pyrimidin-4-yl)-2,8-diazaspiro[4.5]decane-3-carboxylic acid] | < 0.05 |
| 0.3 to 3 | Cc1ccc(C)c(-c2ccc([C@@H](Oc3cc(N4CCC5(CC4)CN[C@H](C(=O)O)C5)nc(N)n3)C(F)(F)F)cc2)c1 [Example 55cs, (S)-8-(2-amino-6-((R)-1-(2′,5′-dimethyl-[1,1′-biphenyl]-4-yl)-2,2,2-trifluoroethoxy)pyrimidin-4-yl)-2,8-diazaspiro[4.5]decane-3-carboxylic acid] |  |
| 0.05 to 0.3 | Cn1ccc(-c2cc(Cl)ccc2[C@@H](Oc2cc(N3CCC4(CC3)CN[C@H](C(=O)O)C4)nc(N)n2)C(F)(F)F)n1 [Example 34t, (S)-8-(2-amino-6-((R)-1-(4-chloro-2-(1-methyl-1H-pyrazol-3-yl)phenyl)-2,2,2-trifluoroethoxy)pyrimidin-4-yl)-2,8-diazaspiro[4.5]decane-3-carboxylic acid] |  |
| 0.3 to 3 | COc1cc(-c2ccc([C@@H](Oc3cc(N4CCC5(CC4)CN[C@H](C(=O)O)C5)nc(N)n3)C(F)(F)F)cc2)ccc1C [Example 55n, (S)-8-(2-amino-6-((R)-2,2,2-trifluoro-1-(3′-methoxy-4′-methyl-[1,1′-biphenyl]-4-yl)ethoxy)pyrimidin-4-yl)-2,8-diazaspiro[4.5]decane-3-carboxylic acid] |  |
| < 0.05 | COCCOc1cccc(-c2cc(Cl)ccc2[C@@H](Oc2cc(N3CCC4(CC3)CN[C@H](C(=O)O)C4)nc(N)n2)C(F)(F)F)c1 [Example 34cv, (S)-8-(2-amino-6-((R)-1-(5-chloro-3′-(2-methoxyethoxy)-[1,1′-biphenyl]-2-yl)-2,2,2-trifluoroethoxy)pyrimidin-4-yl)-2,8-diazaspiro[4.5]decane-3-carboxylic acid] |  |
| 0.3 to 3 | CCCCc1ccc(-c2ccc([C@@H](Oc3cc(N4CCC5(CC4)CN[C@H](C(=O)O)C5)nc(N)n3)C(F)(F)F)cc2)cc1 [Example 55ct, (S)-8-(2-amino-6-((R)-1-(4′-butyl-[1,1′-biphenyl]-4-yl)-2,2,2-trifluoroethoxy)pyrimidin-4-yl)-2,8-diazaspiro[4.5]decane-3-carboxylic acid] |  |

| Compound | IC50 [1] [µM] | IC50 [2] [µM] |
| --- | --- | --- |
| Cc1c2ccc(-c3ccc([C@@H](Oc4cc(N5CCC6(CC5)CN[C@H](C(=O)O)C6)nc(N)n4)C(F)(F)F)cc3)cc2nn1C [Example 55bb] | < 0.05 |  |
| (S)-8-(2-amino-6-((R)-1-(3,4-dihydroquinazolin-6-yl)-2,2,2-trifluoroethoxy)pyrimidin-4-yl)-2,8-diazaspiro[4.5]decane-3-carboxylic acid [Example 57] | 0.05 to 0.3 |  |
